Measured values: article PMC5880808, “A lever-like transduction pathway for long-distance chemical- and mechano-gating of the mechanosensitive Piezo1 channel” (Nature Communications, 2018)

How the values were obtained:
mPiezo1 [1] = molecular target: T1, mPiezo1 (Mus musculus, UniProt E2JF22); experiment: Whole-cell poking-induced currents; type: cell-based; details: for effect on poking currents and inactivation: compound applied to the intracellular side; for increase of poking-induced whole-cell currents: mPiezo1-mRuby2-expressing cells, puffing application of 1 mM Jedi, −80 mV
T1 construct: The full-length mPiezo1 has 2547 amino acids in each monomer; expressed in transfected cells; host or cells: HEK293T
Experimental: Protocols for HEK293T cell culture, transient transfection, and patch-clamp experiments with an Axopatch 200B amplifier (Axon Instruments) or HEKA EPC10 were essentially similar to how previously described[6],[8]. […] The extracellular solution was composed of (in mM) 133 NaCl, 3 KCl, 2.5 CaCl2, 1 MgCl2, 10 HEPES (pH 7.3 with NaOH), and 10 glucose. All experiments were carried out at room temperature. Currents were sampled at 20 kHz, filtered at 2 kHz using the Clampex 10.4 software (Axon Instruments) or Patchmaster software. Leak currents before mechanical stimulations were subtracted offline from the current traces.
Mechanical stimulation was delivered to the cell during the patch-clamp recording at an angle of 80° using a fire-polished glass pipette (tip diameter 3–4 μm) as previously described[5],[6]. Downward movement of the probe toward the cell was driven by a Clampex-controlled piezo-electric crystal micro-stage (E625 LVPZT Controller/Amplifier; Physik Instrument). […] The poking distance shown in Fig. 3 includes the initial distance between the poking pipette and the cell, which cannot be accurately controlled, and the applied poking distance controlled by the Clampex-controlled piezo-electric crystal micro-stage. Thus, the actual poking distance on the cell membrane should be equal to the applied poking distance minus the initial distance between the poking pipette and the cell under recording. In the step-wise poking experiment, the patch was readily lost when the cell was broken at the end of the poking.
Stock solutions of Jedi1 (100 mM), Jedi2 (100 mM), and Yoda1 (30 mM) were solubilized in DMSO and diluted to the desired final concentrations as indicated in the figure legends using external or internal solutions. In Figs. 3a, 5b, and 6e, the compound solutions were puffed onto the cells using a multichannel perfusion system (MPS-2, World Precision Instruments) while continuously recording using a gap-free mode. In other conditions, the compounds were directly added to the recording chamber or pipette solution, and the currents were recorded within 10 min. In Figs. 5b and 6e, we used the Piezo1-KO-HEK cell line in which the endogenous Piezo1 gene is disrupted.

[2] = molecular target: T2, L1342A/L1345A mutant proteins (Mus musculus, UniProt E2JF22, L1342A/L1345A); experiment: SPR binding to purified L1342A/L1345A mutant protein
T2 construct: The full-length mPiezo1 has 2547 amino acids in each monomer; GST (PreScission site) (cleaved yes); made in house; host or cells: HEK293T
Experimental: (§1) Real-time binding and analysis by SPR were conducted on BIAcore T200 instrument (GE Healthcare) at 25 °C. Proteins were immobilized on a research-grade CM5 sensor chip by amine-coupling methods. During the pH scouting process, 10 mM sodium acetate at various pH including 4.0, 4.5, 5.0, and 5.5 and protein concentrations varying between 10 and 100 μg/ml were screened before immobilization. Except pH 4.5 for mPiezo1-(1–2190), pH 5.0 was used for all other proteins, including mPiezo1, CED, Δ15-16, and Δ19-20. All proteins were diluted to 50 μg/ml in buffer containing 10 mM sodium acetate at the abovementioned pH, 0.026% C12E10 detergent, and 150 mM NaCl, except that the soluble CED proteins, which were diluted in 150 mM NaCl without detergent. During the immobilization process, the CM5 sensor was activated with NHS first, allowing the amine-containing proteins to be coupled to the sensor through NHS. Each CM5 sensor had 4 flow cells, and the flow cells 1 and 3 were often left blank as a reference. Diluted Piezo1 wild-type or mutant proteins (50 μg/ml) in their respective buffers were immobilized on the flow cell 2 or flow cell 4 to the similar level as indicated by the “response bound” parameter.
(§2) For data collection, compounds at various concentrations were diluted in a running buffer containing 1× PBS, 0.026% detergent C12E10, and 0.05% Surfactant P20 (GE Healthcare Bio-Sciences AB) and injected over the flow cells with at a 30 μl/min flow rate. The proteins and the compounds were allowed to associate for 180 s and then dissociate for 180 s. Data were analyzed with the BIAcore T200 evaluation software by fitting to a 1:1 affinity-binding model.

mPiezo1 [3] = molecular target: T1, mPiezo1; experiment: SPR binding to immobilized purified protein; details: immobilized mPiezo1 in C12E10, 25 °C
Experimental: We next employed the surface plasmon resonance (SPR) binding assay to examine whether Jedi1/2 bind directly to purified mPiezo1 proteins solubilized in the C12E10 detergent (Supplementary Fig. 2a, b). Based on an amine-coupling method, Piezo1 proteins (50 μg/ml) were optimally immobilized onto a research-grade CM5 sensor chip by using a buffer containing 10 mM sodium acetate (pH 5.0), 150 mM NaCl, 0.026% C12E10, and 0.05% Surfactant P20. […] Given the hydrophilic nature of Jedi1/2, it is possible that the amine-based attachment of the purified Piezo1 protein to the SPR sensor chip might affect the binding. […] Nevertheless, given their low binding affinity, we could not totally exclude the possibility that Jedi1/2 might indirectly activate Piezo1 in the cell.
Real-time binding and analysis by SPR were conducted on BIAcore T200 instrument (GE Healthcare) at 25 °C. Proteins were immobilized on a research-grade CM5 sensor chip by amine-coupling methods. During the pH scouting process, 10 mM sodium acetate at various pH including 4.0, 4.5, 5.0, and 5.5 and protein concentrations varying between 10 and 100 μg/ml were screened before immobilization. Except pH 4.5 for mPiezo1-(1–2190), pH 5.0 was used for all other proteins, including mPiezo1, CED, Δ15-16, and Δ19-20. All proteins were diluted to 50 μg/ml in buffer containing 10 mM sodium acetate at the abovementioned pH, 0.026% C12E10 detergent, and 150 mM NaCl, except that the soluble CED proteins, which were diluted in 150 mM NaCl without detergent. During the immobilization process, the CM5 sensor was activated with NHS first, allowing the amine-containing proteins to be coupled to the sensor through NHS. […]
as §2, with “The proteins and the compounds were allowed to associate for 180 s and then dissociate for 180 s.” left out

[4] = molecular target: T3, C-terminal extracellular domain (CED; 2214–2457) (Mus musculus, UniProt E2JF22); experiment: SPR binding to immobilized purified protein; details: without C12E10 detergent
T3 construct: C-terminal extracellular domain (CED; 2214–2457); made in house
T3 sequence (E2JF22 2214-2457): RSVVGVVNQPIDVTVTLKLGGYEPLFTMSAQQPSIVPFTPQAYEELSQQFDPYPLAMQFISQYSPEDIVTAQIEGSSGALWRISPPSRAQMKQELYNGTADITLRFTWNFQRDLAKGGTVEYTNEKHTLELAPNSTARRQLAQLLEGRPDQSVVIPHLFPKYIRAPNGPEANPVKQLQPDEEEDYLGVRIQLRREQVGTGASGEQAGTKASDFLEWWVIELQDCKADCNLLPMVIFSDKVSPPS
Experimental: as §1, §2

mPiezo1 [5] = molecular target: T1, mPiezo1; experiment: Inside-out patch recording of single-channel activity, compound in pipette solution; type: cell-based; details: −80 mV
Description: For inside-out patch-clamp recordings using an Axopatch 200B amplifier (Axon Instruments), the “extracellular” pipette solution consists of (in mM) the following: 130 NaCl, 5 KCl, 10 HEPES, 1 CaCl2, 1 MgCl2, and 10 TEA-Cl (pH 7.3 with NaOH), and the intracellular “bath” solution contains (in mM) the following: 140 KCl, 10 HEPES, 1 MgCl2, and 10 glucose (pH 7.3 with KOH). All experiments were done at room temperature. Currents were sampled at 20 kHz using Clampex 10.4 software (Axon Instruments) and filtered at 2 kHz. Additional offline filtering of 1 kHz was applied to the recordings for display. Single-channel activity in the presence or absence of Jedi or Yoda1 was continuously recorded for 5 min at −80 mV. The single-channel open probability (NPo) and unitary conductance of mPiezo1 were analyzed using the pClamp software built-in features. Current amplitudes of individual cells recorded at −80 mV were calculated from Gaussian fits to the current amplitude histograms.

[6] = compound applied to the extracellular side

T2 sequence (E2JF22 whole entry L1342A/L1345A): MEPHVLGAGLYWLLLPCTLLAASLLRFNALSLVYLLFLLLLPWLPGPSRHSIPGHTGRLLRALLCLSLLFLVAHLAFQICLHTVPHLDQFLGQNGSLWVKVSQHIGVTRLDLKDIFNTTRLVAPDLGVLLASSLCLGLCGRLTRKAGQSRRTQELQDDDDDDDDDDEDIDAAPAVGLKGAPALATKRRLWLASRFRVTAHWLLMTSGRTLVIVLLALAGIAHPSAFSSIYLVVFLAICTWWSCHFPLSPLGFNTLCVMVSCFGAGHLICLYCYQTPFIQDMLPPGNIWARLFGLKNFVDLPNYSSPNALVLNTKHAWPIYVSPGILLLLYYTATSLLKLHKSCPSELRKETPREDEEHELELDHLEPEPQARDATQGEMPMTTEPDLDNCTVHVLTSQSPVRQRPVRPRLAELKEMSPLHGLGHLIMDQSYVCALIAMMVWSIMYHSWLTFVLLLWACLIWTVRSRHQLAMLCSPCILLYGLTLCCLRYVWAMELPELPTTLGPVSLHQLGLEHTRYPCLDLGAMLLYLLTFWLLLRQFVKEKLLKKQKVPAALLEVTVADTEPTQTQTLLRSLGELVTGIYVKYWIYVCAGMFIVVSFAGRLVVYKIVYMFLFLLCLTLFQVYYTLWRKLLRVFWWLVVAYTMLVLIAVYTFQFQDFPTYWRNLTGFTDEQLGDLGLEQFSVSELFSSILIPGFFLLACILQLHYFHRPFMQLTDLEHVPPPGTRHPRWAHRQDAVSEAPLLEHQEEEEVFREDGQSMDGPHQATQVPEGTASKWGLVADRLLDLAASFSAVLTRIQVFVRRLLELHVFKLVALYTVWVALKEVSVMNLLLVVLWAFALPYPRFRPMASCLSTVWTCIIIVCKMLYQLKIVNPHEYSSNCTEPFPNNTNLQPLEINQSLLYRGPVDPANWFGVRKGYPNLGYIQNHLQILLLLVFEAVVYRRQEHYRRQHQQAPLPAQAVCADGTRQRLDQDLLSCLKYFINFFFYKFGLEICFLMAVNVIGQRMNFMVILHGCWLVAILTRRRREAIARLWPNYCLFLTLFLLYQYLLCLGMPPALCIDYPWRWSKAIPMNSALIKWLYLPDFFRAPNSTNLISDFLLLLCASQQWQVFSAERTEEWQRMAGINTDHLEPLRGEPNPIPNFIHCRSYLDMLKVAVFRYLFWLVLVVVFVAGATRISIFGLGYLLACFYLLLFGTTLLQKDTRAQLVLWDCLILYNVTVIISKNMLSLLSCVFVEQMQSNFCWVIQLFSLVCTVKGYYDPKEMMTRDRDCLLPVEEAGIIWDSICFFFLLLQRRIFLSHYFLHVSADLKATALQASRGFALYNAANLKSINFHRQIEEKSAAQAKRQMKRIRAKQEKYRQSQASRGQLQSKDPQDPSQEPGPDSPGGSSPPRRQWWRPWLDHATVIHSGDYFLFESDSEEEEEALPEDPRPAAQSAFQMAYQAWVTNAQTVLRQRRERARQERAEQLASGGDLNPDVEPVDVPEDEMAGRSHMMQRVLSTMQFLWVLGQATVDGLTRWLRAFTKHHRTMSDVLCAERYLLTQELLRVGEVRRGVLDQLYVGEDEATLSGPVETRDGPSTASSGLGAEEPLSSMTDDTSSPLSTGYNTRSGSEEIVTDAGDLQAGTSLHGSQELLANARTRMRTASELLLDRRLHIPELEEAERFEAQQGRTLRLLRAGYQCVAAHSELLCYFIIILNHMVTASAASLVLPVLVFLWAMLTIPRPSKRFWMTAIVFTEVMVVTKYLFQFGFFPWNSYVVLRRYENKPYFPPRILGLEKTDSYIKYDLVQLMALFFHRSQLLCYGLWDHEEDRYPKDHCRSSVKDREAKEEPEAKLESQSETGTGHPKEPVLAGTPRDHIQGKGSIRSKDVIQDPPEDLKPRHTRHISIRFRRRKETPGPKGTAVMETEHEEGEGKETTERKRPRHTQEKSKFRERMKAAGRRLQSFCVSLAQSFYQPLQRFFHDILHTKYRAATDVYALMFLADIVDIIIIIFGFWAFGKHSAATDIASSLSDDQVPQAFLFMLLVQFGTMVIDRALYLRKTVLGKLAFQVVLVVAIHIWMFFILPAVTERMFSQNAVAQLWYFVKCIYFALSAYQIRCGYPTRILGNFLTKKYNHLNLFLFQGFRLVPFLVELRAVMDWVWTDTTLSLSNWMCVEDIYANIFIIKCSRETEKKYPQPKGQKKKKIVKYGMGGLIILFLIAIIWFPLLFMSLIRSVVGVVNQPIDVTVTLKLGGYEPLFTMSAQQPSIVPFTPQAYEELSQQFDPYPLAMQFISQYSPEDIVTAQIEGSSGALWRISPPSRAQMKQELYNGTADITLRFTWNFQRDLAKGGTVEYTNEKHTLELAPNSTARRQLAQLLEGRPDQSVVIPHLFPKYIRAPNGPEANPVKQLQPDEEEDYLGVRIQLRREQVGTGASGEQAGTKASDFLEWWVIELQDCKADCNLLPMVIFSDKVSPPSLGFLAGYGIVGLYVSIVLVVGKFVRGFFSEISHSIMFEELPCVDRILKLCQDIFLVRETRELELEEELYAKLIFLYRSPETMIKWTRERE
T1 sequence (E2JF22 whole entry): as the sequence (E2JF22 whole entry L1342A/L1345A) above, with A1342L, A1345L counted along it

Row | SMILES | effect on poking currents and inactivation (mPiezo1 [1]) | binding to purified L1342A/L1345A mutant proteins (SPR) [2] | Kd (mPiezo1 [3]) [µM] | binding to purified CED proteins (SPR) [4] | fold change of the open probability (NPo) (mPiezo1 [5]) | inactivation tau of poking-induced currents (mPiezo1 [1]; [6]) | poking-induced maximal currents (Imax) (mPiezo1 [1]; [6]) | increase of poking-induced whole-cell currents (mPiezo1 [1]) [folds]
1 | Clc1cccc(Cl)c1CSc1nnc(-c2cnccn2)s1 [Yoda1, reference compound] | remained effective in enhancing the poking currents and slowing the inactivation | retained the ability to bind | 45.6 ± 14.3 | none | 14.8 ± 0.6 fold | – | – | –
2 | Cc1oc(-c2ccccc2)cc1C(=O)O [Jedi1] | had no effect | retained the ability to bind | 2750 ± 425 | none | 9.6 ± 2.4 fold | slowed the inactivation tau | significantly enhanced | 3.8 ± 0.5
3 | Cc1oc(-c2cccs2)cc1C(=O)O [Jedi2] | – | retained the ability to bind | 2770 ± 178 | none | significant increase in the opening probability | – | – | 5.4 ± 0.7
